Measurements: PubChem BioAssay (NCI)
Several values for one entry are separate records, joined by “and”; a condition that tells them apart may be missing. Equal entries are not always repeated.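 Tested at 5 concentrations; 48 h exposure; 96-well plates; endpoints linearly interpolated, else capped at highest concentration. GI50: concentration for 50% inhibition of growth. TGI: concentration producing complete growth inhibition.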

Key:
Test in all cases: NCI-60 cell line screen, 48 h
SK-MEL-28 melanoma = test system: SK-MEL-28 melanoma
HT29 colon = test system: HT29 colon
UO-31 renal = test system: UO-31 renal
SF-295 CNS = test system: SF-295 CNS
HOP-92 NSCLC = test system: HOP-92 NSCLC
786-0 renal = test system: 786-0 renal
SF-539 CNS = test system: SF-539 CNS
NCI/ADR-RES ovarian = test system: NCI/ADR-RES ovarian
TK-10 renal = test system: TK-10 renal
SK-MEL-2 melanoma = test system: SK-MEL-2 melanoma

| Compound | TGI (SK-MEL-28 melanoma) | TGI (HT29 colon) [µM] | TGI (UO-31 renal) [µM] | TGI (SF-295 CNS) [µM] | TGI (HOP-92 NSCLC) [µM] | TGI (786-0 renal) [µM] | TGI (SF-539 CNS) [µM] | TGI (NCI/ADR-RES ovarian) [µM] | TGI (TK-10 renal) [µM] | TGI (SK-MEL-2 melanoma) [µM] | GI50 (SK-MEL-28 melanoma) [µM] | GI50 (SK-MEL-2 melanoma) [µM] | GI50 (HT29 colon) [µM] | GI50 (UO-31 renal) [µM] | GI50 (SF-295 CNS) [µM] | GI50 (HOP-92 NSCLC) [µM] | GI50 (SF-539 CNS) [µM] | GI50 (NCI/ADR-RES ovarian) [µM] | GI50 (TK-10 renal) [µM] |
| --- | --- | --- | --- | --- | --- | --- | --- | --- | --- | --- | --- | --- | --- | --- | --- | --- | --- | --- | --- |
| c1ccc2c(Nc3ncco3)cccc2c1 | > 10 µM | > 10 | > 10 | > 10 | > 10 | > 10 | > 10 | > 10 | > 10 |  |  |  |  |  |  |  |  |  |  |
| C/C(=C\Cc1ccc(F)cc1)CCCCCC/C(C)=C/Cc1ccc(F)cc1 |  | 33.3 | 23.1 | 24.6 | 23.5 | 21.9 | 31.8 | 31.9 | 29.5 | 37.2 |  |  |  |  |  |  |  |  |  |
| Cc1ccc(-n2nncc2[Si](C)(C)C)s1 | > 100 µM | > 100 | > 100 | > 100 | > 100 | > 100 | > 100 | > 100 | > 100 | > 100 |  |  |  |  |  |  |  |  |  |
| Cc1ccc(N2C(=O)C3CSCN3C2=O)cc1 (stereo unspecified) | > 100 µM and 31.2 µM | > 100 | > 100 | > 100 | > 100 |  | > 100 | > 100 |  | > 100 | > 100 |  |  |  |  |  |  |  |  |
| CN(C)C=N[C@@H](C(=O)O)c1ccccc1 | > 100 µM | > 100 | > 100 | > 100 | > 100 | > 100 |  | > 100 | > 100 |  |  |  |  |  |  |  |  |  |  |
| CC(C)[C@H](C)/C=C/[C@@H](C)C1CC[C@H]2[C@@]34C=C[C@]5(C[C@@H](O)CC[C@]5(C)[C@H]3CC[C@]12C)OO4 (stereo partly specified) | > 100 µM | 53.7 | > 100 | > 100 | 92.3 | 47.7 | > 100 | 50.2 | > 100 | 88.8 |  |  |  |  |  |  |  |  |  |
| COC(=O)c1c2c(cc3c1CC1(Cc4cc5c(c(C)c4C1)CCC5)C3)CCC2 (stereo unspecified) | > 100 µM | > 100 | > 100 | > 100 | > 100 | > 100 | > 100 | > 100 | > 100 | > 100 |  |  |  |  |  |  |  |  |  |
| COc1c(C)c(C/C=C(\C)CCCC(C)CCCC(C)CCCC(C)C)c(OC)c2ccccc12 (stereo unspecified) |  | > 100 | > 100 | > 100 | > 100 | > 100 | > 100 | > 100 | > 100 | > 100 |  |  |  |  |  |  |  |  |  |
| CC(C)(C)OC(=O)C(C#N)C(=O)c1ccc(C(=O)O)[nH]1 (stereo unspecified) | > 100 µM | > 100 | > 100 | > 100 | 73.6 | > 100 | > 100 | 38.5 | > 100 | 68.5 |  |  |  |  |  |  |  |  |  |
| Oc1ccc(Cl)cc1-c1cc(-c2ccccc2)nc(=S)[nH]1 | > 100 µM | > 100 | 68.9 | > 100 | 47.6 | 64 | > 100 | > 100 | 68.7 | 78.2 |  |  |  |  |  |  |  |  |  |
| O=C(O)Cn1c2c(c3c1-c1ccccc1C3=O)C(=O)CCC2 | > 100 µM | > 100 | > 100 | > 100 | > 100 |  | > 100 | > 100 | > 100 | > 100 | > 100 | > 100 | > 100 | > 100 | > 100 | 20 | > 100 | > 100 | > 100 |
| Oc1cccc2c(Br)ccnc12 | 38.3 µM | 19.4 | 21.6 | > 100 | 23 | > 100 | > 49.1 | 12.7 | > 100 | 27.1 |  |  |  |  |  |  |  |  |  |
| CC(OP(=O)(O)O)C(N)C(=O)O (stereo unspecified) | > 100 µM | > 100 | > 100 | > 100 | > 100 | > 100 | > 100 | > 100 | > 100 | > 100 |  |  |  |  |  |  |  |  |  |
| Cc1c(OCc2cccc3ccccc23)ccc2c(=O)cc(SCCN3CCOCC3)oc12 | > 100 µM | > 100 | > 100 | > 100 | > 100 | > 100 | > 100 | > 100 | > 100 | > 100 |  |  |  |  |  |  |  |  |  |
| O=C(O)CSC1=NNC2(C(=O)N1)c1ccccc1-c1ccccc12 | > 10 µM | > 10 | > 10 | > 10 | > 10 | > 10 | > 10 | > 10 | > 10 |  |  |  |  |  |  |  |  |  |  |
| Cc1ccc(N=C/C=C(\Nc2ccc(C)cc2)c2ccc3ccccc3c2)cc1 | 11.2 µM | 2.32 | 13.1 | 3.9 | 27.6 | 3.38 | 3.45 | 2.16 | 6.82 | 11.2 |  |  |  |  |  |  |  |  |  |
| C=C(CN(CC)CC)C1(c2ccccc2)CC2(CCCC2)C(=O)O1 (stereo unspecified) | > 100 µM | 77.9 | > 100 | > 100 | 83.3 | > 100 | > 100 | 84.4 | > 100 | > 100 |  |  |  |  |  |  |  |  |  |
| COc1ccc(OC)c2c(C)ccnc12 | > 100 µM | > 100 | 74.3 | 95.3 | 90.8 | > 100 | > 68.7 | 67.4 | > 100 | > 100 |  |  |  |  |  |  |  |  |  |
| S=C1C(=Nc2ccccc2)N(c2ccccc2)/C(=N\c2cccc[n+]2Cc2ccccc2)N1c1ccccc1 | 37.3 µM | 43 | 42.8 | 27.4 | 41.9 | 30 | 34 | > 100 | 99.8 | 55.8 |  |  |  |  |  |  |  |  |  |
| Nc1ccc2c(=O)cc(-c3ccc(Br)s3)[nH]c2n1 | > 100 µM | > 44.2 | > 23.2 | > 31.9 | > 100 | > 100 | 6.02 | > 26.9 | > 100 | > 100 |  |  |  |  |  |  |  |  |  |
| O=C1C=CC2(O[C@H](C3CCCCC3)[C@@H](C3CCCCC3)O2)C(SC(=O)c2ccccc2)C1 (stereo partly specified) | 3.15 µM | 3.85 | 4.31 | 14.5 | 16.8 | 5.09 | 11.6 | 13.1 | 5.62 | 12.8 |  |  |  |  |  |  |  |  |  |
